Data: ChEMBL document CHEMBL1128921, “Mechanism-based inactivation of serine proteases by dichlorocyclopropane fused lactone derivatives” (Bioorg Med Chem Lett, 1996)

How the values were obtained:
[1] = target: Chymotrypsinogen A (Bos taurus) (UniProt P00766); assay: Compound was evaluated for inhibitory activity against alpha-chymotrypsin at a concentration of 6.0 x 10e-3
[2] = target: T1, Chymotrypsin-like elastase family member 2A (Sus scrofa) (UniProt P08419); assay: Compound was evaluated for inhibitory activity against PP elastase at a concentration of 1.2 x 10e-3; NI = No inactivation
T1 sequence (whole entry): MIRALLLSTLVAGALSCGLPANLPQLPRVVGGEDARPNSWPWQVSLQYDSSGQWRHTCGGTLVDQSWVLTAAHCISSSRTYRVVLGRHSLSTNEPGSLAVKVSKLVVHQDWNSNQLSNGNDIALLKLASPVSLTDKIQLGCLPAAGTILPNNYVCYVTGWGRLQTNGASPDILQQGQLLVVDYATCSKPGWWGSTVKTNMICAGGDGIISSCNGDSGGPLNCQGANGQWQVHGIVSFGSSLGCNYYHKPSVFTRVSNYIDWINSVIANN

[3] = target: Chymotrypsinogen A (Bos taurus) (UniProt P00766); assay: Compound was evaluated for inhibitory activity against alpha-chymotrypsin at a concentration of 5.0 x 10e-4
[4] = target: Chymotrypsinogen A (Bos taurus) (UniProt P00766); assay: Compound was evaluated for inhibitory activity against alpha-chymotrypsin at a concentration of 5.0 x 10e-4; NI = No inactivation
[5] = target: T1, Chymotrypsin-like elastase family member 2A (Sus scrofa); assay: Compound was evaluated for inhibitory activity against PP elastase at a concentration of 1.95 x 10e-2; NI = No inactivation
[6] = target: Chymotrypsinogen A (Bos taurus) (UniProt P00766); assay: Compound was evaluated for inhibitory activity against alpha-chymotrypsin at a concentration of 1.95 x 10e-2; NI = No inactivation
[7] = target: T1, Chymotrypsin-like elastase family member 2A (Sus scrofa); assay: Compound was evaluated for inhibitory activity against PP elastase at a concentration of 2.0 x 10e-5; NI = No inactivation
[8] = target: Chymotrypsinogen A (Bos taurus) (UniProt P00766); assay: Compound was evaluated for inhibitory activity against alpha-chymotrypsin at a concentration of 7.5 x 10e-6

Q: Which K obs / 1 [1] does the source give for O=C(O)CCC(=O)N[C@@H](Cc1ccccc1)C(=O)OC1CC1(Cl)Cl (stereo partly drawn) here?
A: The K obs / 1 was 0.054 M⁻¹ s⁻¹.

Q: Which results are given for C[C@H](NC(=O)CCC(=O)O)C(=O)N[C@@H](C)C(=O)N[C@@H](Cc1ccccc1)C(=O)OC1CC1(Cl)Cl (stereo partly drawn)?
A: K obs / 1 [2]: No inactivation; K obs / 1 [3]: 0.337 M⁻¹ s⁻¹

Q: O=C1OCCCC1Cc1ccccc1 (stereo not drawn) was tested. Which “K obs / 1” value [4] did it give?
A: Its value is “No inactivation”.

Q: What does the source list for O=C1CCC2C(O1)C2(Cl)Cl (stereo not drawn)?
A: K obs / 1 [5]: No inactivation; K obs / 1 [6]: No inactivation

Q: How did the “K obs / 1” value [7] turn out when O=C1OC2C(CC1Cc1ccccc1)C2(Cl)Cl (stereo not drawn) was run?
A: Its value is “No inactivation”.

Q: What about the K obs / 1 [8] of the same molecule?
A: Its K obs / 1 is 54 M⁻¹ s⁻¹.
